The values below come from patent publication US20110124888A1, “STYRYLBENZOFURAN DERIVATIVES AS INHIBITORS FOR BETA-AMYLOID FIBRIL FORMATION AND PREPARATION METHOD THEREOF” (Korea Institute of Science and Technology, priority 2008, published 2011).

Counter-ions that a name gives are not always drawn. Like-named read-outs stand apart in the source and are kept apart here. A value given as a limit tells only on which side of the number the result lay.

As a reminder, the inhibition is the share of the control response that was lost under treatment. As a reminder, the IC50 is the midpoint of a concentration-inhibition curve.

The target of this experiment is T1, beta-amyloid 42 (Aβ42) (Homo sapiens, UniProt P05067).
T1 construct: Beta-amyloid 42 (Aβ42) was dissolved in dimethylsulfoxide (DMSO)
Put plainly: Inhibitory effect on the formation of beta-amyloid fibrils in vitro (ThT fluorescence assay). It is filed as biochemical. Particulars: for inhibition at 10 µM: read-out: % Inhibition (10 μM); for IC50: In vitro ThT analysis (Aβ42: 25 μM); for % inhibition against the beta-amyloid 42 formation compared with curcumin: Tables 1 to 6, relative to curcumin. How it is done: In order to investigate the inhibitory effect on the formation of beta-amyloid fibrils, the inventive compounds were examined as follows:
Beta-amyloid 42 (Aβ42) was dissolved in dimethylsulfoxide (DMSO) to form a […] Aβ42 stock solution. In addition, ThT (thioflavin T) was dissolved in distilled water to a concentration of 1 mM and subsequently diluted with 50 mM glycin buffer (pH 8.5) to yield a 5 μM ThT stock solution.
45 μL of PBS (phosphate buffer saline, pH 7.4) was added to each of a 96 well fluorescence microplate (white, F-bottom). 5 μL of the 250 μM Aβ42 stock solution was added to each well. The final concentration of each compound obtained in Examples was in a range of 10 to 0.001 μM by adding 2 μL of a solution, which is prepared by dissolving the subject compounds obtained in Examples in DMSO, to each well. At this time, the final concentration of Aβ42 in each well was 25 μM. The plate was then incubated at room temperature for 1 hr, and 150 μL of the 5 μM ThT stock solution was added to each well.
The fluorescence intensity of each well was determined with the multi label fluorescence counter (LS-55 Luminescence spectrometer, Perkin Elmer) at an excitation wavelength of 450 nm (excitation slit width: 10 nm) and an emission wavelength of 482 nm (emission slit width: 10 nm), while adjusting counting time to 1 second. The control group was prepared by adding PBS solution, Aβ42 and DMSO, without adding the inventive compound. % Inhibition on the formation of beta-amyloid fibrils was calculated in accordance with the following equation and IC5O was calculated by using GraphPad Prism version 4.03 Program.
% Inhibition=[1−(C−D)/(A−B)]×100 Equation 1%
A (control group): fluorescence intensity in a group treated with PBS solution, Aβ42, and DMSO
B (blank): fluorescence intensity in a group treated with PBS solution and DMSO
C (experimental group): fluorescence intensity in a group treated with PBS solution, Aβ42, DMSO, and the inventive compound
D (compensation value to the experimental group): fluorescence intensity in a group treated with PBS solution, DMSO, and the inventive compound

[1] abbreviates: 10 μM compound, Aβ42 25 μM, experiment of Table 3.
Setting [2] is: 10 μM compound, Aβ42 25 μM, experiment of Table 7.
Setting [3] is: 10 μM compound, Aβ42 25 μM, experiment of Table 5.
The mark [4] stands for this setting: 10 μM compound, Aβ42 25 μM, experiment of Table 4.
Setting [5] is: 10 μM compound, Aβ42 25 μM, experiment of Table 6.
Setting [6] is: 10 μM compound, Aβ42 25 μM, experiment of Table 2.

T1 sequence (P05067 672-713 limits assumed): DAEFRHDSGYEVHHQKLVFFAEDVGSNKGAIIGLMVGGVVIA

As to “5-methyl-2-(aminostyryl)benzofuran trifluoroacetate [Compound 39]”, the “% Inhibition (10 μM)” value under setting [1] is listed as 60.23%.
As for `CN(C)c1ncc(/C=C/c2nc3ccccc3o2)s1` [Comparative Example 1, reference compound], the inhibition at 10 µM under setting [2] worked out at 63.4%. The molecule further displayed a concentration for half-maximal inhibition (IC50) (experiment of Table 7) of 3400 nM.
On the same counts, the results for `CN(C)c1ccc(/C=C/c2nc3ccccc3s2)cc1` [Comparative Example 2, 2-(4-dimethylaminophenylethenyl)benzothiazole, reference compound] are 25.7% and 31800 nM.
Where the note is “experiment of Table 1”, `CN(C)c1ccc(C=Cc2cc3ccccc3o2)cc1` [Compound 1, 2-(4-dimethylaminostyryl)benzofuran] yielded an IC50 of 2300 nM.
On the same count and under the same terms, the same measure for `COc1ccc2oc(C=Cc3ccc(N(C)C)cc3)cc2c1` [Compound 2, 5-Methoxy-2-(4-dimethylaminostyryl)benzofuran]: 810 nM; for `CN(C)c1ccc(C=Cc2cc3cc(F)ccc3o2)cc1` [Compound 5, 5-fluoro-2-(4-dimethylaminostyryl)benzofuran]: 1980 nM.
Take `CN(C)c1ccc(C=Cc2cc3cc(Cl)ccc3o2)cc1` [Compound 6, 5-chloro-2-(4-dimethylaminostyryl)benzofuran]: the “% inhibition against the beta-amyloid 42 formation compared with curcumin” value (shortened to “% inhibition … with curcumin”) is given as “superior % inhibition”. The molecule further displayed an IC50 (experiment of Table 1) of 199 nM.
The like results for `CN(C)c1ccc(C=Cc2cc3cc(Br)ccc3o2)cc1` [Compound 7, 5-bromo-2-(4-dimethylaminostyryl)benzofuran] were, in that order, “superior % inhibition” and 470 nM.
With `CN(C)c1ccc(C=Cc2cc3cc(I)ccc3o2)cc1` [Compound 8, 5-iodo-2-(4-dimethylaminostyryl)benzofuran], the “% inhibition … with curcumin” value is given as “superior % inhibition”. Also, the IC50 (experiment of Table 1) was determined as 168 nM.
`CN(C)c1ccc(C=Cc2cc3ccc(O)cc3o2)cc1` [Compound 10, 6-hydroxy-2-(4-dimethylaminostyryl)benzofuran] registered a half-maximal inhibitory concentration (IC50) (experiment of Table 1) of 3620 nM.
On to `Cc1ccc2cc(C=Cc3ccc(N(C)C)cc3)oc2c1` [Compound 11, 6-methyl-2-(4-dimethylaminostyryl)benzofuran], for which, for the setting “experiment of Table 1”, the IC50 was 3440 nM.
In turn, `CN(C)c1ccc(C=Cc2cc3ccc(F)cc3o2)cc1` [Compound 12, 6-fluoro-2-(4-dimethylaminostyryl)benzofuran] came in with an IC50 (experiment of Table 1) of 2190 nM.
Regarding `CN(C)c1ccc(C=Cc2cc3ccc(Cl)cc3o2)cc1` [Compound 13, 6-chloro-2-(4-dimethylaminostyryl)benzofuran], the IC50 (experiment of Table 1) was determined as 3210 nM.
Consider `CN(C)c1ccc(C=Cc2cc3ccc(Br)cc3o2)cc1` [Compound 14, 6-bromo-2-(4-dimethylaminostyryl)benzofuran], for which the IC50 (experiment of Table 1) turned out to be 1340 nM.
The same measure, in the same setting: the same measure for `CN(C)c1ccc(C=Cc2cc3ccc(I)cc3o2)cc1` [Compound 15, 6-iodo-2-(4-dimethylaminostyryl)benzofuran]: 2800 nM; for `COc1ccc2oc(C=Cc3ccc(N)cc3)cc2c1` [Compound 16, 5-methoxy-2-(4-aminostyryl)benzofuran]: 820 nM.
The molecule `Nc1ccc(C=Cc2cc3cc(O)ccc3o2)cc1` [Compound 18, 5-hydroxy-2-(4-aminostyryl)benzofuran hydrochloride] yielded an IC50 (experiment of Table 1) of 2950 nM. This IC50 lies about 3.6-fold higher than the previous one.
On the same count and under the same terms, under `CNc1ccc(C=Cc2cc3cc(O)ccc3o2)cc1` [Compound 19, 5-hydroxy-2-(4-methylaminostyryl)benzofuran hydrochloride] stands 2160 nM.
As to `COc1ccc2cc(C=Cc3ccc(N)cc3)oc2c1` [Compound 20, 6-methoxy-2-(4-aminostyryl)benzofuran], for the setting “experiment of Table 1”, the IC50 worked out at 5440 nM.
Still for that read-out and setting: the same measure for `CNc1ccc(C=Cc2cc3ccc(OC)cc3o2)cc1` [Compound 21, 6-methoxy-2-(4-methylaminostyryl)benzofuran]: 800 nM.
Take `COc1ccc2cc(C=Cc3ccc(N(C)C)c(OC)c3)oc2c1` [Compound 23, 6-methoxy-2-(3-methoxy-4-dimethylaminostyryl)benzofuran]: the “% inhibition … with curcumin” value is given as “superior % inhibition”. Also, the half-inhibitory concentration (IC50) (experiment of Table 1) is 528 nM.
With `Nc1ccc(C=Cc2cc3ccccc3o2)cc1` [Compound 24, 2-(4-aminostyryl)benzofuran trifluoroacetate], the inhibition at 10 µM turned out to be 70.7%.
Regarding `CNc1ccc(C=Cc2cc3ccccc3o2)cc1` [Compound 25, 2-(4-methylaminostyryl)benzofuran trifluoroacetate], the inhibition at 10 µM is 59%.
With `CCN(CC)c1ccc(C=Cc2cc3ccccc3o2)cc1` [Compound 26, 2-(4-diethylaminostyryl)benzofuran], the inhibition at 10 µM under setting [1] is 4.54%.
On the same count and under the same terms, the same measure for `COc1ccc(C=Cc2cc3ccccc3o2)cc1` [Compound 27, 2-(4-methoxystyryl)benzofuran]: 58.3%.
On to `COc1ccc(C=Cc2cc3ccccc3o2)cc1OC` [Compound 28, 2-(3,4-dimethoxystyryl)benzofuran], for which, under setting [3], the inhibition at 10 µM is 67.4%. Further, the IC50 (experiment of Table 5) was found to be 3290 nM.
Regarding `Nc1ccc(C=Cc2cc3cc(Cl)ccc3o2)cc1` [Compound 29, 5-chloro-2-(4-aminostyryl)benzofuran], under setting [4], the inhibition at 10 µM is 82.8%. This molecule also yielded an IC50 (experiment of Table 4) of 1990 nM.
As for `CNc1ccc(C=Cc2cc3cc(Cl)ccc3o2)cc1` [Compound 30, 5-chloro-2-(4-methylaminostyryl)benzofuran], the “% inhibition … with curcumin” value was “superior % inhibition”. Further, the inhibition at 10 µM under setting [5] is 68.4%. The same molecule registered an IC50 (experiment of Table 6) of 2170 nM.
For the molecule `CCN(CC)c1ccc(C=Cc2cc3cc(Cl)ccc3o2)cc1` [Compound 31, 5-chloro-2-(4-diethylaminostyryl)benzofuran], the inhibition at 10 µM under setting [4] turned out to be 37.9%. The molecule further yielded an IC50 (experiment of Table 4) of 963 nM.
`CNc1ccc(C=Cc2cc3cc(Cl)ccc3o2)cc1OC` [Compound 32, 5-chloro-2-(3-methoxy-4-methylaminostyryl)benzofuran]: under setting [3], the inhibition at 10 µM was 47.6%.
As to `COc1ccc(C=Cc2cc3cc(Cl)ccc3o2)cc1` [Compound 33, 5-chloro-2-(4-methoxystyryl)benzofuran], under setting [6], the inhibition at 10 µM amounted to 51.8%. The molecule also returned an IC50 (experiment of Table 2) of over 100000 nM.
For `COc1ccc(C=Cc2cc3cc(Cl)ccc3o2)cc1OC` [Compound 34, 5-chloro-2-(3,4-dimethoxystyryl)benzofuran], the “% inhibition … with curcumin” value is “superior % inhibition”. Under setting [6], the inhibition at 10 µM worked out at 72.5%. For the setting “experiment of Table 2”, this molecule displayed an IC50 of 181 nM.
With `CCN(CC)c1ccc(C=Cc2cc3cc(OC)ccc3o2)cc1` [Compound 35, 5-methoxy-2-(4-diethylaminostyryl)benzofuran], the inhibition at 10 µM under setting [6] worked out at 55.1%. The molecule also showed a half-maximal inhibitory concentration (IC50) (experiment of Table 2) of 1180 nM.
In the case of `CNc1ccc(C=Cc2cc3cc(OC)ccc3o2)cc1OC` [Compound 36, 5-methoxy-2-(3-methoxy-4-methylaminostyryl)benzofuran], under setting [3], the inhibition at 10 µM came to 24.5%.
`COc1ccc(C=Cc2cc3cc(OC)ccc3o2)cc1` [Compound 37, 5-methoxy-2-(4-methoxystyryl)benzofuran]: the “% inhibition … with curcumin” value was “superior % inhibition”. Also, the inhibition at 10 µM under setting [6] was 67.9%. The molecule also returned an IC50 (experiment of Table 2) of 707 nM.
Turning to `COc1ccc2oc(C=Cc3ccc(OC)c(OC)c3)cc2c1` [Compound 38, 5-methoxy-2-(3,4-dimethoxystyryl)benzofuran], the inhibition at 10 µM under setting [6] turned out to be 81.1%. For the same molecule, the IC50 (experiment of Table 2) was determined as 1560 nM.
As to `CNc1ccc(C=Cc2cc3cc(C)ccc3o2)cc1` [Compound 40, 5-methyl-2-(4-methylaminostyryl)benzofuran trifluoroacetate], the inhibition at 10 µM was found to be 70.2% under setting [1] and 73.5% under setting [5]. For the same molecule, for the setting “experiment of Table 6”, it took 5050 nM to reach half-maximal inhibition (IC50).
`CCN(CC)c1ccc(C=Cc2cc3cc(C)ccc3o2)cc1` [Compound 41, 5-methyl-2-(4-diethylaminostyryl)benzofuran]: the inhibition at 10 µM under setting [1] is under 1%.
